According to PubChem BioAssay (NCI):
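The compound was tested at five concentrations on cells cultured in 96-well plates, with a 48-hour exposure period. GI50: concentration for 50% inhibition of growth. TGI is the concentration that stops growth completely.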

Columns and labels:
Assay in all cases: growth of human tumour cells (NCI), 48 h
HOP-92 NSCLC = tested on: HOP-92 NSCLC
SK-MEL-5 melanoma = tested on: SK-MEL-5 melanoma
SK-MEL-28 melanoma = tested on: SK-MEL-28 melanoma
RPMI-8226 leukemia = tested on: RPMI-8226 leukemia
KM12 colon = tested on: KM12 colon
NCI-H460 lung = tested on: NCI-H460 lung
SNB-75 CNS = tested on: SNB-75 CNS
OVCAR-3 ovarian = tested on: OVCAR-3 ovarian
TK-10 renal = tested on: TK-10 renal
SW-620 colon = tested on: SW-620 colon

**Q.** Which results are given for `COc1cc(C2CC(c3cc(Cl)c(C)cc3O)=NN2c2ccc(S(N)(=O)=O)cc2)cc(OC)c1OC` (stereo not given)?
**A.** GI50 (HOP-92 NSCLC): 2.14 µM; TGI (HOP-92 NSCLC): 6.99 µM; GI50 (SK-MEL-5 melanoma): 2.02 µM; TGI (SK-MEL-5 melanoma): 4.18 µM; GI50 (SK-MEL-28 melanoma): 3 µM; TGI (SK-MEL-28 melanoma): 7.86 µM; GI50 (RPMI-8226 leukemia): 2.66 µM; TGI (RPMI-8226 leukemia): 14.8 µM; GI50 (KM12 colon): 2.28 µM; TGI (KM12 colon): 5.1 µM; GI50 (NCI-H460 lung): 2.06 µM; TGI (NCI-H460 lung): 3.87 µM; GI50 (SNB-75 CNS): 2.45 µM; TGI (SNB-75 CNS): 28.3 µM; GI50 (OVCAR-3 ovarian): 2.19 µM; TGI (OVCAR-3 ovarian): 4.77 µM; GI50 (TK-10 renal): 2.6 µM; TGI (TK-10 renal): 6.6 µM; GI50 (SW-620 colon): 3.35 µM; TGI (SW-620 colon): 10.7 µM

**Q.** What does the source list for `CCC1C(=O)OCc2c1cc1n(c2=O)Cc2ccccc2-1` (stereo not given)?
**A.** TGI (HOP-92 NSCLC): > 100 µM; TGI (SK-MEL-5 melanoma): > 100 µM; TGI (SK-MEL-28 melanoma): > 100 µM; TGI (RPMI-8226 leukemia): > 100 µM; TGI (KM12 colon): > 100 µM; TGI (NCI-H460 lung): > 100 µM; TGI (SNB-75 CNS): > 100 µM; TGI (OVCAR-3 ovarian): > 100 µM; TGI (TK-10 renal): > 100 µM; TGI (SW-620 colon): > 100 µM

**Q.** For `O=C(/C=C/c1ccc(OCCCOc2ccc(/C=C/C(=O)c3ccc(Cl)cc3)cc2)cc1)c1ccc(Cl)cc1`, which TGI (HOP-92 NSCLC) is on record?
**A.** > 100 µM

**Q.** What about the TGI (SK-MEL-5 melanoma) of the same compound?
**A.** > 100 µM

**Q.** What about the TGI (SK-MEL-28 melanoma) of the same compound?
**A.** > 100 µM

**Q.** What about the TGI (RPMI-8226 leukemia) of the same compound?
**A.** > 100 µM

**Q.** What about the TGI (KM12 colon) of the same compound?
**A.** > 100 µM

**Q.** What about the TGI (NCI-H460 lung) of the same compound?
**A.** > 100 µM

**Q.** What about the TGI (SNB-75 CNS) of the same compound?
**A.** > 100 µM

**Q.** What about the TGI (OVCAR-3 ovarian) of the same compound?
**A.** > 100 µM

**Q.** And the TGI (TK-10 renal)?
**A.** > 100 µM

**Q.** What about the TGI (SW-620 colon) of the same compound?
**A.** > 100 µM

**Q.** How did the TGI (HOP-92 NSCLC) turn out when `NC(=O)COc1ccc(Br)cc1Br` was run?
**A.** > 100 µM

**Q.** And the TGI (SK-MEL-5 melanoma)?
**A.** > 100 µM

**Q.** What about the TGI (SK-MEL-28 melanoma) of the same compound?
**A.** > 100 µM

**Q.** What about the TGI (RPMI-8226 leukemia) of the same compound?
**A.** > 100 µM

**Q.** What about the TGI (KM12 colon) of the same compound?
**A.** > 100 µM

**Q.** What about the TGI (NCI-H460 lung) of the same compound?
**A.** > 100 µM

**Q.** And the TGI (SNB-75 CNS)?
**A.** > 100 µM

**Q.** And the TGI (OVCAR-3 ovarian)?
**A.** > 100 µM

**Q.** And the TGI (SW-620 colon)?
**A.** > 100 µM

**Q.** `Cc1c(-c2ccnc(N)n2)c2c(n1-c1ccccc1)C(=O)c1ccccc1C2=O` was tested. Which GI50 (HOP-92 NSCLC) did it give?
**A.** > 100 µM

**Q.** And the TGI (HOP-92 NSCLC)?
**A.** > 100 µM

**Q.** What about the GI50 (SK-MEL-5 melanoma) of the same compound?
**A.** 16.2 µM

**Q.** What about the TGI (SK-MEL-5 melanoma) of the same compound?
**A.** 34.1 µM

**Q.** And the GI50 (SK-MEL-28 melanoma)?
**A.** 41.8 µM

**Q.** What about the TGI (SK-MEL-28 melanoma) of the same compound?
**A.** > 100 µM

**Q.** And the GI50 (RPMI-8226 leukemia)?
**A.** > 100 µM

**Q.** What about the TGI (RPMI-8226 leukemia) of the same compound?
**A.** > 100 µM

**Q.** What about the GI50 (KM12 colon) of the same compound?
**A.** 16.8 µM

**Q.** And the TGI (KM12 colon)?
**A.** 45.8 µM

**Q.** What about the GI50 (NCI-H460 lung) of the same compound?
**A.** 17.6 µM

**Q.** And the TGI (NCI-H460 lung)?
**A.** 60 µM

**Q.** What about the GI50 (SNB-75 CNS) of the same compound?
**A.** 30 µM

**Q.** What about the TGI (SNB-75 CNS) of the same compound?
**A.** > 100 µM

**Q.** What about the GI50 (OVCAR-3 ovarian) of the same compound?
**A.** 12.3 µM

**Q.** And the TGI (OVCAR-3 ovarian)?
**A.** 30.6 µM

**Q.** What about the GI50 (TK-10 renal) of the same compound?
**A.** 20.2 µM

**Q.** And the TGI (TK-10 renal)?
**A.** 63.3 µM

**Q.** What about the GI50 (SW-620 colon) of the same compound?
**A.** 38.9 µM

**Q.** And the TGI (SW-620 colon)?
**A.** > 100 µM

**Q.** For `NS(=O)(=O)c1ccc(N=Nc2cc3ccccc3c(C(=O)O)c2O)cc1`, which TGI (HOP-92 NSCLC) is on record?
**A.** > 100 µM

**Q.** What about the TGI (SK-MEL-5 melanoma) of the same compound?
**A.** > 100 µM

**Q.** And the TGI (SK-MEL-28 melanoma)?
**A.** > 100 µM

**Q.** What about the TGI (RPMI-8226 leukemia) of the same compound?
**A.** > 100 µM

**Q.** And the TGI (KM12 colon)?
**A.** > 100 µM

**Q.** And the TGI (NCI-H460 lung)?
**A.** > 87.5 µM

**Q.** And the TGI (SNB-75 CNS)?
**A.** > 94.4 µM

**Q.** What about the TGI (OVCAR-3 ovarian) of the same compound?
**A.** > 87.6 µM

**Q.** What about the TGI (TK-10 renal) of the same compound?
**A.** > 80.6 µM

**Q.** What about the TGI (SW-620 colon) of the same compound?
**A.** > 100 µM

**Q.** For `Cn1ccnc1C(=O)/C=C/c1ccc(CC(=O)Nc2cc(F)c(F)c(F)c2)cc1`, which GI50 (HOP-92 NSCLC) is on record?
**A.** 2.59 µM

**Q.** And the TGI (HOP-92 NSCLC)?
**A.** 7.44 µM

**Q.** And the GI50 (SK-MEL-5 melanoma)?
**A.** 3.25 µM

**Q.** What about the TGI (SK-MEL-5 melanoma) of the same compound?
**A.** 6.47 µM

**Q.** And the GI50 (SK-MEL-28 melanoma)?
**A.** 3.64 µM

**Q.** What about the TGI (SK-MEL-28 melanoma) of the same compound?
**A.** 7.69 µM

**Q.** What about the GI50 (RPMI-8226 leukemia) of the same compound?
**A.** 0.795 µM

**Q.** And the TGI (RPMI-8226 leukemia)?
**A.** 3.54 µM

**Q.** What about the GI50 (KM12 colon) of the same compound?
**A.** 1.58 µM

**Q.** And the TGI (KM12 colon)?
**A.** 5.51 µM

**Q.** What about the GI50 (NCI-H460 lung) of the same compound?
**A.** 1.49 µM

**Q.** What about the TGI (NCI-H460 lung) of the same compound?
**A.** 11.8 µM

**Q.** And the GI50 (SNB-75 CNS)?
**A.** 0.867 µM

**Q.** What about the TGI (SNB-75 CNS) of the same compound?
**A.** > 25 µM

**Q.** And the GI50 (OVCAR-3 ovarian)?
**A.** 1.36 µM

**Q.** What about the TGI (OVCAR-3 ovarian) of the same compound?
**A.** 4.44 µM

**Q.** And the GI50 (TK-10 renal)?
**A.** 4.29 µM

**Q.** What about the TGI (TK-10 renal) of the same compound?
**A.** 13.4 µM

**Q.** And the GI50 (SW-620 colon)?
**A.** 1.46 µM

**Q.** What about the TGI (SW-620 colon) of the same compound?
**A.** 8.98 µM

**Q.** With `Nc1ccc(Sc2ccc3c4c2cccc4c(=O)n2c4ccccc4nc32)cc1` as the compound, how does the GI50 (SK-MEL-5 melanoma) read?
**A.** 2.92 µM

**Q.** And the TGI (SK-MEL-5 melanoma)?
**A.** 13.9 µM

**Q.** What about the GI50 (SK-MEL-28 melanoma) of the same compound?
**A.** 12.8 µM

**Q.** What about the TGI (SK-MEL-28 melanoma) of the same compound?
**A.** 35.3 µM

**Q.** And the GI50 (RPMI-8226 leukemia)?
**A.** 2.5 µM

**Q.** And the TGI (RPMI-8226 leukemia)?
**A.** 14.3 µM

**Q.** What about the GI50 (KM12 colon) of the same compound?
**A.** 6.63 µM

**Q.** What about the TGI (KM12 colon) of the same compound?
**A.** 58.6 µM

**Q.** What about the GI50 (NCI-H460 lung) of the same compound?
**A.** 1.9 µM

**Q.** What about the TGI (NCI-H460 lung) of the same compound?
**A.** 14.3 µM

**Q.** What about the GI50 (SNB-75 CNS) of the same compound?
**A.** 3.35 µM

**Q.** And the TGI (SNB-75 CNS)?
**A.** 48.1 µM

**Q.** And the GI50 (OVCAR-3 ovarian)?
**A.** 6.4 µM

**Q.** What about the TGI (OVCAR-3 ovarian) of the same compound?
**A.** 24.4 µM

**Q.** And the GI50 (SW-620 colon)?
**A.** 5.16 µM

**Q.** What about the TGI (SW-620 colon) of the same compound?
**A.** > 100 µM
